Reference: US12329158B2, “Large-scale methods of uniformly coating packaging surfaces with a volatile antimicrobial to preserve food freshness” (AGROFRESH INC., priority 2013, dated 2025)
In brackets after ≈: the same amount, converted by molar mass.

Columns and labels:
[1] = tested on: Pectobacterium carotovorum; experiment: Volatile assay against bacterial pathogens, MBC (Example 12); type: cell-based; conditions: P. carotovorum; headspace concentration; 48 hours at 23 C
Protocol: (§1) 12-Well (6.5 mL volume per well) microtiter plates are used for the in vitro inhibition assay for volatile antimicrobial Compound A against additional bacterial pathogens. A 3-mL volume of Nutrient agar is added to each well and allowed to dry before introducing the pathogen. Escherichia coli, Pectobacterium carotovorum, Xanthomonas axonopodis and Salmonella enterica cell suspensions are adjusted to an optical density of 0.2 to 0.35, and further diluted 1/10, and 15 μL is pipetted to the center of each well and tilted to distribute uniformly. A Whatman #1 filter paper (CAT 1001-0155) is placed on the underside of a polyethylene PCR plate sealing film. […] The films with the treated disks are then applied over the inoculated plates and sealed. Plates are inverted, and incubated at 23° C. for 48 hours. After the incubation period, the bacteria colonies are dislodged in sterile water containing tween 80 (0.001%) and the optical density (OD; 600 nm) is determined. Results are summarized in Table 6, where the headspace concentration required to control at least 80% of bacterial growth is reported.

Salmonella enterica = experiment: as above; type: cell-based; conditions: S. enterica; headspace concentration; 48 hours at 23 C
Protocol: as §1

Escherichia coli = experiment: as above; type: cell-based; conditions: E. coli; headspace concentration; 48 hours at 23 C
Protocol: as §1

Xanthomonas axonopodis = experiment: as above; type: cell-based; conditions: X. axonopodis; headspace concentration; 48 hours at 23 C
Protocol: as §1

Penicillium digitatum = experiment: Green mold on orange, volatile assay (Example 25); type: in vivo; conditions: 50 mg/L, day 3 at 21 C after 5 days at 1 C
Botrytis cinerea [2] = experiment: Volatile application to strawberries in clamshells, treated clamshell vs fruit transfer (Example 21); type: in vivo; conditions: 0.1 mg/L headspace
Protocol: Eight strawberries (per repetition, in triplicate) are placed in an industry standard 1-lb PET clamshell with the stem-end facing down.
Compound A is then mixed with acetone and 100 μL of the mixture is pipetted into a small glass tube. […] Compound A is then introduced into the cabinet containing the clamshell by using the sublimation device set at 180° C. to achieve a final headspace concentration of 0.1 mg/L and equilibrated at 1° C. for 0.5 or 1 hour.
After incubation, both clamshells are removed from the treatment chamber. One clamshell is undisturbed while the fruit from the second clamshell are immediately transferred into a new untreated clamshell. All clamshells are then held at 1° C. for 5 days and then evaluated during an additional 5 days at 21° C. During the 5 days at 21° C., the fruits are evaluated for gray mold severity (scale 0 to 4, with ≤1 indicating marketable fruit and 4 indicating ≥50% of fruit surface covered by pathogen). […] The treated clamshell produces marketable fruit up to 3 days with 0.5 hour treatment (0.1), whereas fruits in new clamshells are unmarketable (2.7). Similarly, the treated clamshell produces marketable fruit up to 5 days with 1 hour treatment (0.4), whereas fruits in new clamshells are unmarketable (1.6). Thus, treatments where berries remain in the treated clamshells have the best level of control due to the compound further volatilizing over time off of the clamshell surface.

Penicillium expansum = experiment: Blue mold on apple, contact assay; type: in vivo
Protocol: Contact Assay: […] A 250 mL solution of each concentration is used to dip two inoculated apples, one minute per apple, performed in triplicate per rate. The dipped fruits are then placed back into the […] are then placed in a secondary container and incubated at 1° C. for 5 days. After incubation, fruits are evaluated for diameter (mm) of rot development (browning) up to 7 days at 21° C.

Botrytis cinerea [3] = experiment: Volatile release from different materials, MIC (Example 13); type: cell-based
Protocol: An in vitro assay is used to evaluate the ability of Compound A to volatilize from different materials and control fungal growth. […] A 3-mL volume of full-strength Potato Dextrose Agar (PDA) is added to each well. […] Plates are inoculated immediately prior to volatile fungicide treatment. The various materials are placed, in duplicate, on the underside of a polyethylene PCR plate sealing film. […] The acetone is permitted to evaporate for five minutes. The headspace around the Botrytis cinerea inoculum is then sealed inside the well by the film with the adhering disk of material containing the fungicide. Plates are inverted, placed over the treated disks and sealed to prevent any of the chemical from flaking from the disk and falling onto the inoculated agar. After three days of storage at 23° C., the cultures are evaluated for percent growth relative to control based on measurement of fungal colony diameter.

OB1OCc2cc(F)ccc21 [Compound A, 5-fluoro-1,3-dihydro-1-hydroxy-2,1-benzoxaborole]
Rate (mg/L) offering at least 80% control [1]: 2.2 mg/L
Rate (mg/L) offering at least 80% control (Salmonella enterica): 17.9 mg/L
Rate (mg/L) offering at least 80% control (Escherichia coli): 35.7 mg/L
Rate (mg/L) offering at least 80% control (Xanthomonas axonopodis): 4.5 mg/L
Orange Sporulation (mm) (Penicillium digitatum): 0.0 mm
Disease Severity (0 to 4) (Botrytis cinerea [2]; Treated clamshell, treatment time 0.5 hour, Day 1): 0.0
Disease Severity (0 to 4) (Botrytis cinerea [2]; Treated clamshell, treatment time 0.5 hour, Day 3): 0.1
Disease Severity (0 to 4) (Botrytis cinerea [2]; Treated clamshell, treatment time 0.5 hour, Day 5): 2.3
Disease Severity (0 to 4) (Botrytis cinerea [2]; Treated clamshell, treatment time 1 hour, Day 1): 0.0
Disease Severity (0 to 4) (Botrytis cinerea [2]; Treated clamshell, treatment time 1 hour, Day 3): 0.0
Disease Severity (0 to 4) (Botrytis cinerea [2]; Treated clamshell, treatment time 1 hour, Day 5): 0.4
Disease Severity (0 to 4) (Botrytis cinerea [2]; Untreated clamshell (fruit transfer), treatment time 0.5 hour, Day 1): 0.0
Disease Severity (0 to 4) (Botrytis cinerea [2]; Untreated clamshell (fruit transfer), treatment time 0.5 hour, Day 3): 2.7
Disease Severity (0 to 4) (Botrytis cinerea [2]; Untreated clamshell (fruit transfer), treatment time 0.5 hour, Day 5): 3.4
Disease Severity (0 to 4) (Botrytis cinerea [2]; Untreated clamshell (fruit transfer), treatment time 1 hour, Day 1): 0.0
Disease Severity (0 to 4) (Botrytis cinerea [2]; Untreated clamshell (fruit transfer), treatment time 1 hour, Day 3): 0.1
Disease Severity (0 to 4) (Botrytis cinerea [2]; Untreated clamshell (fruit transfer), treatment time 1 hour, Day 5): 1.6
Browning Rot (diameter; mm) (Penicillium expansum; 2 mg/L, Day 0): 0.0 mm
Browning Rot (diameter; mm) (Penicillium expansum; 2 mg/L, Day 2): 3.7 mm
Browning Rot (diameter; mm) (Penicillium expansum; 2 mg/L, Day 4): 15.5 mm
Browning Rot (diameter; mm) (Penicillium expansum; 2 mg/L, Day 7): 23.3 mm
Browning Rot (diameter; mm) (Penicillium expansum; 10 mg/L, Day 0): 0.0 mm
Browning Rot (diameter; mm) (Penicillium expansum; 10 mg/L, Day 2): 2.2 mm
Browning Rot (diameter; mm) (Penicillium expansum; 10 mg/L, Day 4): 8.0 mm
Browning Rot (diameter; mm) (Penicillium expansum; 10 mg/L, Day 7): 20.2 mm
Browning Rot (diameter; mm) (Penicillium expansum; 50 mg/L, Day 0): 0.0 mm
Browning Rot (diameter; mm) (Penicillium expansum; 50 mg/L, Day 2): 0.7 mm
Browning Rot (diameter; mm) (Penicillium expansum; 50 mg/L, Day 4): 5.7 mm
Browning Rot (diameter; mm) (Penicillium expansum; 50 mg/L, Day 7): 15.0 mm
Browning Rot (diameter; mm) (Penicillium expansum; 250 mg/L, Day 0): 0.0 mm
Browning Rot (diameter; mm) (Penicillium expansum; 250 mg/L, Day 2): 0.0 mm
Browning Rot (diameter; mm) (Penicillium expansum; 250 mg/L, Day 4): 4.3 mm
Browning Rot (diameter; mm) (Penicillium expansum; 250 mg/L, Day 7): 11.8 mm
MIC (Botrytis cinerea [3]; volatile release from Acrylic-Coated Fiberglass): 0.56 µg/mL (≈ 3.69 µM)
MIC (Botrytis cinerea [3]; volatile release from Aramid): 2.2 µg/mL (≈ 14.5 µM)
MIC (Botrytis cinerea [3]; volatile release from Aramid and Fiberglass): 0.56 µg/mL (≈ 3.69 µM)
MIC (Botrytis cinerea [3]; volatile release from Cardboard): 2.2 µg/mL (≈ 14.5 µM)
MIC (Botrytis cinerea [3]; volatile release from Cellulose): 0.56 µg/mL (≈ 3.69 µM)
MIC (Botrytis cinerea [3]; volatile release from Fiberglass): 0.56 µg/mL (≈ 3.69 µM)
MIC (Botrytis cinerea [3]; volatile release from PTFE): 1.1 µg/mL (≈ 7.24 µM)
MIC (Botrytis cinerea [3]; volatile release from PTFE-Coated Fiberglass): 0.56 µg/mL (≈ 3.69 µM)
MIC (Botrytis cinerea [3]; volatile release from Polyethylene PCR Film): 0.28 µg/mL (≈ 1.84 µM)
MIC (Botrytis cinerea [3]; volatile release from Silica): 0.56 µg/mL (≈ 3.69 µM)
MIC (Botrytis cinerea [3]; volatile release from Silicone-Coated Fiberglass): 0.56 µg/mL (≈ 3.69 µM)
MIC (Botrytis cinerea [3]; volatile release from Vinyl-Coated Polyester): 0.56 µg/mL (≈ 3.69 µM)
